Laboratory results from PMC7156458, “Synthetic biology based construction of biological activity-related library of fungal decalin-containing diterpenoid pyrones” (Nature Communications, 2020).

Target: Aβ42 (Homo sapiens, UniProt P05067)
Assay: Th-T (thioflavin-T) assay of Aβ42 aggregation
Assay type: biochemical
Conditions: for Th-T fluorescence of Aβ42 with compound, mean of three wells (Fig. 7a source data): concentration 50, unit not given

Chain of Aβ42 (P05067 672-713): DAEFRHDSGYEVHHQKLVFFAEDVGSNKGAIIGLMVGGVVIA

## C=C1CCC2C(C)(CCC=C(C)C)C(O)CCC2(C)C1Cc1c(OC)oc(CO)c(C(=O)OC)c1=O (stereo not drawn) [Compound 13]
time-course reading M143
  Th-T fluorescence of Aβ42 with compound, mean of three wells (Fig. 7a source data): 0.478
time-course reading M144
  Th-T fluorescence of Aβ42 with compound, mean of three wells (Fig. 7a source data): 0.478
time-course reading M145
  Th-T fluorescence of Aβ42 with compound, mean of three wells (Fig. 7a source data): 0.4736
Head suffix _10 (concentration 10), reading M63
  Th-T fluorescence of Aβ42 (sheet Fig. 7a), mean of three wells: 1.556
Head suffix _10 (concentration 10), reading M64
  Th-T fluorescence of Aβ42 (sheet Fig. 7a), mean of three wells: 1.557
Head suffix _10 (concentration 10), reading M65
  Th-T fluorescence of Aβ42 (sheet Fig. 7a), mean of three wells: 1.551
Head suffix _10 (concentration 10), reading M66
  Th-T fluorescence of Aβ42 (sheet Fig. 7a), mean of three wells: 1.553
Head suffix _10 (concentration 10), reading M67
  Th-T fluorescence of Aβ42 (sheet Fig. 7a), mean of three wells: 1.558
Head suffix _10 (concentration 10), reading M68
  Th-T fluorescence of Aβ42 (sheet Fig. 7a), mean of three wells: 1.564
Head suffix _10 (concentration 10), reading M69
  Th-T fluorescence of Aβ42 (sheet Fig. 7a), mean of three wells: 1.56
Head suffix _10 (concentration 10), reading M70
  Th-T fluorescence of Aβ42 (sheet Fig. 7a), mean of three wells: 1.554
Head suffix _10 (concentration 10), reading M71
  Th-T fluorescence of Aβ42 (sheet Fig. 7a), mean of three wells: 1.549
Head suffix _10 (concentration 10), reading M72
  Th-T fluorescence of Aβ42 (sheet Fig. 7a), mean of three wells: 1.561
Head suffix _10 (concentration 10), reading M73
  Th-T fluorescence of Aβ42 (sheet Fig. 7a), mean of three wells: 1.566
Head suffix _10 (concentration 10), reading M74
  Th-T fluorescence of Aβ42 (sheet Fig. 7a), mean of three wells: 1.559
Head suffix _10 (concentration 10), reading M75
  Th-T fluorescence of Aβ42 (sheet Fig. 7a), mean of three wells: 1.561
Head suffix _10 (concentration 10), reading M76
  Th-T fluorescence of Aβ42 (sheet Fig. 7a), mean of three wells: 1.555
Head suffix _10 (concentration 10), reading M77
  Th-T fluorescence of Aβ42 (sheet Fig. 7a), mean of three wells: 1.558
Head suffix _10 (concentration 10), reading M78
  Th-T fluorescence of Aβ42 (sheet Fig. 7a), mean of three wells: 1.561
Head suffix _10 (concentration 10), reading M79
  Th-T fluorescence of Aβ42 (sheet Fig. 7a), mean of three wells: 1.5579
Head suffix _10 (concentration 10), reading M80
  Th-T fluorescence of Aβ42 (sheet Fig. 7a), mean of three wells: 1.555
Head suffix _10 (concentration 10), reading M81
  Th-T fluorescence of Aβ42 (sheet Fig. 7a), mean of three wells: 1.559
Head suffix _10 (concentration 10), reading M82
  Th-T fluorescence of Aβ42 (sheet Fig. 7a), mean of three wells: 1.556
Head suffix _10 (concentration 10), reading M83
  Th-T fluorescence of Aβ42 (sheet Fig. 7a), mean of three wells: 1.5605
Head suffix _10 (concentration 10), reading M84
  Th-T fluorescence of Aβ42 (sheet Fig. 7a), mean of three wells: 1.551
Head suffix _20 (concentration 20), reading M63
  Th-T fluorescence of Aβ42 (sheet Fig. 7a), mean of three wells: 1.031
Head suffix _20 (concentration 20), reading M64
  Th-T fluorescence of Aβ42 (sheet Fig. 7a), mean of three wells: 1.035
Head suffix _20 (concentration 20), reading M65
  Th-T fluorescence of Aβ42 (sheet Fig. 7a), mean of three wells: 1.042
Head suffix _20 (concentration 20), reading M66
  Th-T fluorescence of Aβ42 (sheet Fig. 7a), mean of three wells: 1.05
Head suffix _20 (concentration 20), reading M67
  Th-T fluorescence of Aβ42 (sheet Fig. 7a), mean of three wells: 1.057
Head suffix _20 (concentration 20), reading M68
  Th-T fluorescence of Aβ42 (sheet Fig. 7a), mean of three wells: 1.061
Head suffix _20 (concentration 20), reading M69
  Th-T fluorescence of Aβ42 (sheet Fig. 7a), mean of three wells: 1.053
Head suffix _20 (concentration 20), reading M70
  Th-T fluorescence of Aβ42 (sheet Fig. 7a), mean of three wells: 1.058
Head suffix _20 (concentration 20), reading M71
  Th-T fluorescence of Aβ42 (sheet Fig. 7a), mean of three wells: 1.058
Head suffix _20 (concentration 20), reading M72
  Th-T fluorescence of Aβ42 (sheet Fig. 7a), mean of three wells: 1.061
Head suffix _20 (concentration 20), reading M73
  Th-T fluorescence of Aβ42 (sheet Fig. 7a), mean of three wells: 1.063
Head suffix _20 (concentration 20), reading M74
  Th-T fluorescence of Aβ42 (sheet Fig. 7a), mean of three wells: 1.057
Head suffix _20 (concentration 20), reading M75
  Th-T fluorescence of Aβ42 (sheet Fig. 7a), mean of three wells: 1.056
Head suffix _20 (concentration 20), reading M76
  Th-T fluorescence of Aβ42 (sheet Fig. 7a), mean of three wells: 1.058
Head suffix _20 (concentration 20), reading M77
  Th-T fluorescence of Aβ42 (sheet Fig. 7a), mean of three wells: 1.059
Head suffix _20 (concentration 20), reading M78
  Th-T fluorescence of Aβ42 (sheet Fig. 7a), mean of three wells: 1.0603
Head suffix _20 (concentration 20), reading M79
  Th-T fluorescence of Aβ42 (sheet Fig. 7a), mean of three wells: 1.056
Head suffix _20 (concentration 20), reading M80
  Th-T fluorescence of Aβ42 (sheet Fig. 7a), mean of three wells: 1.0496
Head suffix _20 (concentration 20), reading M81
  Th-T fluorescence of Aβ42 (sheet Fig. 7a), mean of three wells: 1.051
Head suffix _20 (concentration 20), reading M82
  Th-T fluorescence of Aβ42 (sheet Fig. 7a), mean of three wells: 1.061
Head suffix _20 (concentration 20), reading M83
  Th-T fluorescence of Aβ42 (sheet Fig. 7a), mean of three wells: 1.058
Head suffix _20 (concentration 20), reading M84
  Th-T fluorescence of Aβ42 (sheet Fig. 7a), mean of three wells: 1.053
Head suffix _50 (concentration 50), reading M63
  Th-T fluorescence of Aβ42 (sheet Fig. 7a), mean of three wells: 0.4695
Head suffix _50 (concentration 50), reading M64
  Th-T fluorescence of Aβ42 (sheet Fig. 7a), mean of three wells: 0.467
Head suffix _50 (concentration 50), reading M65
  Th-T fluorescence of Aβ42 (sheet Fig. 7a), mean of three wells: 0.4693
Head suffix _50 (concentration 50), reading M66
  Th-T fluorescence of Aβ42 (sheet Fig. 7a), mean of three wells: 0.4724
Head suffix _50 (concentration 50), reading M67
  Th-T fluorescence of Aβ42 (sheet Fig. 7a), mean of three wells: 0.4748
Head suffix _50 (concentration 50), reading M68
  Th-T fluorescence of Aβ42 (sheet Fig. 7a), mean of three wells: 0.4706
Head suffix _50 (concentration 50), reading M69
  Th-T fluorescence of Aβ42 (sheet Fig. 7a), mean of three wells: 0.4713
Head suffix _50 (concentration 50), reading M70
  Th-T fluorescence of Aβ42 (sheet Fig. 7a), mean of three wells: 0.4681
Head suffix _50 (concentration 50), reading M71
  Th-T fluorescence of Aβ42 (sheet Fig. 7a), mean of three wells: 0.4721
Head suffix _50 (concentration 50), reading M72
  Th-T fluorescence of Aβ42 (sheet Fig. 7a), mean of three wells: 0.4741
